The target of experiment [1] is NMDA receptor-ionophore complex (site labeled by [3H]MK-801). In words: Inhibition of [3H]MK-801 binding in rat cortical/hippocampal washed membrane preparations. To be noted: read-out: IC50 (μM) vs. [3H]MK-801.
Experiment [2] relates to NMDA receptor. As to the kind of experiment: Inhibition of NMDA/glycine-induced increases in intracellular calcium in cultured rat cerebellar granule cells (RCGC). The experiment is classed as cell-based. The note with it: NMDA/glycine-induced increases in intracellular calcium, cultured rat cerebellar granule cells; read-out: IC50 (μM) vs. NMDA. In general terms: A change in cytosolic calcium serves as a functional read-out for many receptors and channels.

[3] abbreviates: rat cortical/hippocampal washed membranes.

Our source for the IC50 values is patent US6750244B2, “Compounds active at a novel site on receptor-operated calcium channels useful for treatment of neurological disorders and diseases” (NPS Pharmaceuticals, Inc., priority 1993, dated 2004).

Several values for one entry are separate records, joined by “and”; a condition that tells them apart may be missing. Equal values may be shown once. Read-outs that look alike come from different tables or passages of the source.

As a reminder, the IC50 is the concentration needed to halve the response being measured. `CCC(CCN)(c1cccc(F)c1)c1cccc(F)c1` [Compound 82, 3,3-bis(3-fluorophenyl)-3-ethyl-1-propylamine]: the IC50 in experiment [1] (setting [3]) is 0.794 µM; in experiment [2] it was 0.106 µM.

For `NCCC(c1cccc(F)c1)c1cccs1` (centres unmarked) [Compound 83], the IC50 was 0.794 µM in experiment [1] (setting [3]) and 0.342 µM in experiment [2].

On to `OC1(C(c2cccc(F)c2)c2cccc(F)c2)CCNC1` (centres unmarked) [Compound 84], for which the IC50 was 23.4 µM in experiment [1] (setting [3]) and 7.9 µM in experiment [2].

Take `C[C@H](C(c1ccccc1)c1ccccc1)[C@@H](C)N` [Compound 86]: the IC50 in experiment [1] (setting [3]) is 6 µM; in experiment [2] it was 1.2 µM.

As for `C[C@H](N)[C@H](C)C(c1ccccc1)c1ccccc1` [Compound 87], the IC50 was found to be 3 µM in experiment [1] (setting [3]) and 0.657 µM in experiment [2].

Take `NCCOC(c1ccccc1)c1ccccc1` [Compound 88]: the IC50 worked out at 10.6 µM in experiment [1] (setting [3]) and 2.5 µM in experiment [2].

Consider `N=C(N)CC(c1cccc(F)c1)c1cccc(F)c1` [Compound 89], for which the figures for the IC50 in experiment [1] (setting [3]) and in experiment [2] were 1.2 µM and 0.24 µM, respectively.

With `NCCC(c1ccsc1)c1cccc(F)c1` (centres unmarked) [Compound 90], the IC50 in experiment [1] (setting [3]) was 1.4 µM; in experiment [2] it was 0.27 µM.

With `CCC(NCCC(c1ccccc1)c1ccccc1)c1ccccc1` (centres unmarked) [Compound 91], the IC50 in experiment [1] (setting [3]) turned out to be 14.1 µM; in experiment [2] it was 0.162 µM.

`Fc1cccc(C(CCNCc2ccccc2)c2cccc(F)c2)c1` [Compound 92]: the values for the IC50 in experiment [1] (setting [3]) and in experiment [2] were 20.2 µM and 1.3 µM, respectively.

In the case of `CC(NCCC(c1cccc(F)c1)c1cccc(F)c1)c1ccccc1` (centres unmarked) [Compound 93], the IC50 amounted to 26.9 µM in experiment [1] (setting [3]) and 0.486 µM in experiment [2].

In the case of `CCC(NCCC(c1cccc(F)c1)c1cccc(F)c1)c1ccccc1` (centres unmarked) [Compound 94], the half-maximal inhibitory concentration (IC50) is 22.6 µM in experiment [1] (setting [3]) and 0.248 µM in experiment [2].

Take `NCCC(c1cc(F)cc(F)c1)c1cc(F)cc(F)c1` [Compound 95, 3,3-bis(3,5,difluorophenyl)-1-propylamine]: the IC50 in experiment [1] (setting [3]) was found to be 3 µM; in experiment [2] it was 0.311 µM.

Consider `NCCC(c1cccc(F)c1)c1cc(F)cc(F)c1` (centres unmarked) [Compound 96, 3-(3,5-difluorophenyl)-3-(3-fluorophenyl)-1-propylamine], for which the IC50 in experiment [1] (setting [3]) is 1.1 µM; in experiment [2], 0.187 µM.

In the case of `COc1ccccc1C(CCN)c1ccccc1` (centres unmarked) [Compound 97, 3-(2-methoxyphenyl)-3-phenyl-1-propylamine], the figures for the half-maximal inhibitory concentration (IC50) in experiment [1] (setting [3]) and in experiment [2] were 2.6 µM and 0.41 µM, respectively.

In the case of `NCC(c1cccc(F)c1)c1cccc(F)c1` [Compound 98, 2,2-bis(3-fluorophenyl)-1-ethylamine], the IC50 in experiment [1] (setting [3]) came to 52.5 µM; in experiment [2], 7.9 µM.

Consider `NCC(c1ccc(F)cc1)c1ccc(F)cc1` [Compound 99], for which the results for the IC50 in experiment [1] (setting [3]) and in experiment [2] were 105 µM and greater than 100 µM, respectively.

Turning to `NCCCC(c1cccc(F)c1)c1cccc(F)c1` [Compound 100, 4,4-bis(3-fluorophenyl)-1-butylamine], the values for the IC50 in experiment [1] (setting [3]) and in experiment [2] were 3.2 µM and 0.602 µM, respectively.

With `NCCC(c1cccc(O)c1)c1cccc(F)c1` (centres unmarked) [Compound 101], the values for the IC50 in experiment [1] (setting [3]) and in experiment [2] were 2 µM and 0.912 µM, respectively.

With `Fc1cccc(C(c2cccc(F)c2)C2CCNC2)c1` (centres unmarked) [Compound 102], the half-inhibitory concentration (IC50) came out at 3.3 µM in experiment [1] (setting [3]) and 1.01 µM in experiment [2].

In the case of `NCCC(c1cccc(F)c1)c1ccccc1O` (centres unmarked) [Compound 103, 3-(2-hydroxyphenyl)-3-(3-fluorophenyl)-1-propylamine], the concentration for half-maximal inhibition (IC50) stood at 0.661 µM in experiment [1] (setting [3]) and 0.38 µM in experiment [2].

Consider `NCCCC(c1ccc(F)cc1)c1ccc(F)cc1` [Compound 104], for which the IC50 in experiment [1] (setting [3]) was greater than 10 µM; in experiment [2], 7.98 µM.

For `CN(CCC(c1cccc(F)c1)c1cccc(F)c1)Cc1ccccc1` [Compound 105], the figures for the IC50 in experiment [1] (setting [3]) and in experiment [2] were greater than 3 µM and 1.03 µM, respectively.

Turning to `CNCC=C(c1cccc(F)c1)c1cccc(F)c1` [Compound 106], the IC50 in experiment [1] (setting [3]) turned out to be 1.31 µM; in experiment [2], 0.767 µM.

With `CNCCC(c1ccccc1)c1cccc(F)c1` (centres unmarked) [Compound 108, N-methyl-3-(3-fluorophenyl)-3-phenyl-1-propylamine], the 50% inhibitory concentration (IC50) came to 0.942 µM in experiment [1] (setting [3]) and 1.06 µM in experiment [2].

On to `Fc1cccc(C(=C2CCCNC2)c2cccc(F)c2)c1` [Compound 109], for which the results for the IC50 in experiment [1] (setting [3]) and in experiment [2] were 1.08 µM and 1.95 µM, respectively.

Regarding `Fc1cccc(C(=C2CCNCC2)c2cccc(F)c2)c1` [Compound 110], the half-maximal inhibitory concentration (IC50) in experiment [1] (setting [3]) was found to be 13.3 µM; in experiment [2], 42.7 µM.

In the case of `Fc1cccc(C(c2cccc(F)c2)C2CCCNC2)c1` (centres unmarked) [Compound 111], the IC50 was 0.167 µM in experiment [1] (setting [3]); 0.645 µM and 0.79 µM in experiment [2].

Take `Fc1cccc(C(c2cccc(F)c2)C2CCNCC2)c1` [Compound 112]: the 50% inhibitory concentration (IC50) in experiment [1] (setting [3]) is 21 µM; in experiment [2], 28 µM and 28.9 µM.

For `COc1cccc(C(CCN)c2cccc(OC)c2)c1` [Compound 115, 3,3-bis(3-methoxyphenyl)-1-propylamine], the half-maximal inhibitory concentration (IC50) in experiment [1] (setting [3]) is 1 µM; in experiment [2], 1.4 µM and 1.9 µM.

With `NCCN(c1ccccc1)c1ccccc1` [Compound 117], the IC50 in experiment [1] (setting [3]) was found to be 6 µM; in experiment [2] it was 19.6 µM.

On to `NCCC(Oc1ccccc1)c1cccc(F)c1` (centres unmarked) [Compound 118], for which the IC50 in experiment [1] (setting [3]) was determined as 0.24 µM; in experiment [2], 0.409 µM.

On to `COc1ccccc1OC(CCN)c1cccc(F)c1` (centres unmarked) [Compound 121], for which the results for the IC50 in experiment [1] (setting [3]) and in experiment [2] were 0.67 µM and 0.656 µM, respectively.

On to `CN(C)CCC(c1cccc(F)c1)c1cccc(F)c1` [Compound 123, N,N-dimethyl-3,3-bis(3-fluorophenyl)-1-propylamine], for which the IC50 was greater than 3 µM in experiment [1] (setting [3]) and 9.6 µM in experiment [2].

With `NCCCc1ccccc1-c1cccc(F)c1` [Compound 124], the values for the IC50 in experiment [1] (setting [3]) and in experiment [2] were 14.3 µM and 3.5 µM, respectively.

Turning to `NCCC(Cc1ccccc1)c1ccccc1` (centres unmarked) [Compound 125], the IC50 in experiment [1] (setting [3]) amounted to 6.7 µM; in experiment [2], 1.7 µM.

As to `NCC(Cc1cccc(F)c1)Cc1cccc(F)c1` [Compound 126], the values for the IC50 in experiment [1] (setting [3]) and in experiment [2] were 6 µM and 0.398 µM, respectively.

As to `NCCCc1ccccc1Cc1ccccc1` [Compound 127], the IC50 in experiment [1] (setting [3]) stood at 17.5 µM; in experiment [2] it was 1.2 µM.

For `NCCc1ccccc1Cc1ccccc1` [Compound 128], the half-inhibitory concentration (IC50) is 5.5 µM in experiment [1] and 0.646 µM in experiment [2].

For `NCCc1ccccc1Oc1ccccc1` [Compound 132], the concentration for half-maximal inhibition (IC50) in experiment [1] (setting [3]) was 6.4 µM; in experiment [2] it was 1.3 µM.

On to `NCC(Cc1ccccc1)c1ccccc1` (centres unmarked) [Compound 133], for which the IC50 turned out to be 3 µM in experiment [1] (setting [3]) and 0.76 µM in experiment [2].

`COc1cccc(C(CCN)c2cccc(Cl)c2)c1` (centres unmarked) [Compound 136]: the figures for the IC50 in experiment [1] (setting [3]) and in experiment [2] were 0.706 µM and 0.139 µM, respectively.

Regarding `NCC=C(c1cccc(F)c1)c1cccc(F)c1` [Compound 139, 3,3-bis(3-fluorophenyl)-prop-2-ene-1-amine], the IC50 was 5.6 µM in experiment [1] (setting [3]); 1.97 µM and 1.4 µM in experiment [2].

With `COc1cccc(/C(=C\CN)c2cccc(F)c2)c1` [Compound 141], the figures for the 50% inhibitory concentration (IC50) in experiment [1] (setting [3]) and in experiment [2] were 8.97 µM and 4.26 µM, respectively.

In the case of `CNCCC(c1cccc(F)c1)c1cccc(OC)c1` (centres unmarked) [Compound 142], the IC50 in experiment [1] (setting [3]) was found to be 1.54 µM; in experiment [2] it was 1.01 µM.

For `CNCCC(Oc1cccc(F)c1)c1cccc(F)c1` (centres unmarked) [Compound 145], the IC50 turned out to be 0.626 µM in experiment [1] (setting [3]) and 0.098 µM in experiment [2].
